Values after ≈ are worked out from the molar mass of the structure shown.
Key:
[1] = tested on: seven gram-positive or -negative strains; experiment: Antibacterial Test 2: MIC against each of the seven strains; format: cell-based; conditions: each of S. aureus, M. luteus, E. faecalis, B. subtilis, E. coli, K. pneumoniae, P. aeruginosa; read-out: MIC of each of the above-mentioned seven strains
Description: (§1) Then, tested were antibacterial activities of the typical compounds of the present invention against gram-positive and -negative bacteria other than Hp. MICs of the typical compounds of the present invention were determined in substantial accordance with agar dilution method (aerobic MIC method) based on standard method of the Japan Society Chemotherapy.
(§2) The respective test compound were dissolved in dimethyl sulfoxide (DMSO) and serially diluted twofold to prepare solutions of the compounds with concentration of 0.05-100 μg/ml. The solutions of the compounds were respectively added to sensitive-disk agar medium-N (manufactured by NISSUI SEIYAKU) to prepare agar plates for determination.
(§3) The below-mentioned strains freezingly conserved at -135° C. were thawed in a warm bath (40° C.), cultured in a sensitivity-determining bouillon at 37° C. for 18-20 hours, and then diluted with the above-mentioned medium to prepare about 1.0×10^6 CFU/ml of bacterial suspension.
(§4) Inoculation was made by 5 μl by multi-inoculator (manufactured by SAKUMA SEISAKUSHO). Culturing was made under the same conditions as those of the pre-culturing and the MIC (unit: μg/ml) was determined by observing whether the bacteria grew or not.

[2] = tested on: Helicobacter pylori standard strain ATCC 43526 (NCTC 11916); experiment: Antibacterial Test 1: MIC against Helicobacter pylori, agar plate dilution method (anaerobic MIC method); format: cell-based; conditions: 72 h, Hp ATCC 43526, agar plate dilution, 37° C., 3 days
P. aeruginosa IFO 3445 = experiment: Antibacterial Test 2: MIC, agar dilution method (aerobic MIC method); format: cell-based; conditions: Pseudomonas aeruginosa, IFO3445
Description: as §1, §2, §3, §4

E. coli NIHJ JC-2 = experiment: as above; format: cell-based; conditions: Escherichia coli, NIHJJC2
Description: as §1, §2, §3, §4

K. pneumoniae PCI 602 = experiment: as above; format: cell-based; conditions: Klebsiella pneumoniae, PCI602
Description: as §1, §2, §3, §4

M. luteus ATCC 9341 = experiment: as above; format: cell-based; conditions: Micrococcus luteus, ATCC9341
Description: as §1, §2, §3, §4

E. faecalis RIMD 3336001 = experiment: as above; format: cell-based; conditions: Enterococcus faecalis, RIMD3336001
Description: as §1, §2, §3, §4

S. aureus FDA 209P = experiment: as above; format: cell-based; conditions: Staphylococcus aureus, FDA209P
Description: as §1, §2, §3, §4

B. subtilis PCI 219 = experiment: as above; format: cell-based; conditions: Bacillus subtilis, PCI219
Description: as §1, §2, §3, §4

peptic ulcer = conditions: up to; cited from earlier work

MIC [2] [µg/mL]	MIC (P. aeruginosa IFO 3445) [µg/mL]	MIC (E. coli NIHJ JC-2) [µg/mL]	MIC (K. pneumoniae PCI 602) [µg/mL]	MIC (M. luteus ATCC 9341) [µg/mL]	MIC (E. faecalis RIMD 3336001) [µg/mL]	MIC (S. aureus FDA 209P) [µg/mL]	MIC (B. subtilis PCI 219) [µg/mL]	SMILES	MIC [1] [µg/mL]	cure rate (peptic ulcer)
0.0031 (≈ 0.00623 µM)								O=C(CSc1ccnc2ccccc12)c1ccc(N2CCN(C(=O)OCc3ccccc3)CC2)cc1 [Compound 78, 4-[2-[4-(4-Benzyloxycarbonyl-1-piperazinyl)phenyl)-2-oxoethylthio]quinoline]	> 100	
0.0016 (≈ 0.00297 µM)								O=C(CSc1ccnc2ccccc12)c1ccc(N2CCN(C(=O)OCC(Cl)(Cl)Cl)CC2)cc1 [Compound 81, 4-[2-[4-[4-(2,2,2-Trichloroethoxycarbonyl)-1-piperazinyl]phenyl]-2-oxoethylthio]quinoline]	> 100	
0.05 (≈ 0.137 µM)	> 100	3.13 (≈ 8.57 µM)	50 (≈ 137 µM)	≤ 0.05	0.2 (≈ 0.547 µM)	0.1 (≈ 0.274 µM)	0.2 (≈ 0.547 µM)	CC1(C)S[C@@H]2[C@H](NC(=O)[C@H](N)c3ccc(O)cc3)C(=O)N2[C@H]1C(=O)O [amoxicillin, reference compound]		
								CN/C(=N/CCSCc1nc[nH]c1C)NC#N [cimetidine]		80-90%
0.025 (≈ 0.0334 µM)	> 100	100 (≈ 134 µM)	6.25 (≈ 8.36 µM)	≤ 0.05	0.39 (≈ 0.521 µM)	0.1 (≈ 0.134 µM)	0.2 (≈ 0.267 µM)	CC[C@H]1OC(=O)[C@H](C)[C@@H](O[C@H]2C[C@@](C)(OC)[C@@H](O)[C@H](C)O2)[C@H](C)[C@@H](O[C@@H]2O[C@H](C)C[C@H](N(C)C)[C@H]2O)[C@](C)(OC)C[C@@H](C)C(=O)[C@H](C)[C@@H](O)[C@]1(C)O [clarithromycin, reference compound]		
12.5 (≈ 33.8 µM)	> 100	> 100	> 100	> 100	> 100	> 100	> 100	Cc1c(OCC(F)(F)F)ccnc1C[S+]([O-])c1nc2ccccc2[nH]1 (stereo not shown) [lansoprazole, reference compound]		
								COc1ccc2[nH]c([S+]([O-])Cc3ncc(C)c(OC)c3C)nc2c1 (stereo not shown) [omeprazole]		80-90%

SMILES	MIC [2] [µg/mL]	MIC (P. aeruginosa IFO 3445) [µg/mL]	MIC (E. coli NIHJ JC-2) [µg/mL]	MIC (K. pneumoniae PCI 602) [µg/mL]	MIC (M. luteus ATCC 9341) [µg/mL]	MIC (E. faecalis RIMD 3336001) [µg/mL]	MIC (S. aureus FDA 209P) [µg/mL]	MIC (B. subtilis PCI 219) [µg/mL]	MIC [1] [µg/mL]	cure rate (peptic ulcer)
CC(C)(C)OC(=O)N1CCC(Nc2ccc(C(=O)CSc3ccnc4ccccc34)cc2Br)C1 (stereo not shown) [Compound 65, 4-[2-[3-Bromo-4-(1-tert-butoxycarbonyl-3-pyrrolidinylamino)phenyl]-2-oxoethylthio]quinoline]	0.0031 (≈ 0.00571 µM)								> 100	
CC(C)[C@H](NC(=O)OC(C)(C)C)C(=O)N1CCN(c2ccc(C(=O)CSc3ccnc4ccccc34)cc2)CC1 [Compound 79, 4-[2-[4-[4-(N-tert-Butoxycarbonylvalyl)-1-piperazinyl]-phenyl]-2-oxoethylthio]quinoline]	0.0016 (≈ 0.00284 µM)								> 100	
